One block for each compound: values may come before it.
Legend:
CYP1A2 [1] = test: Induction of CYP1A2 mRNA expression in human HepaRG cells assessed as fold change at 30 uM incubated for 48 hrs; type: ADME, cell-based; details: read-out: FC
[2] = Inhibition of IL-1beta stimulated IL-6 production in human A549 cells pre-incubated for 1 hr followed by overnight stimulation by ELISA analysis; type: functional, cell-based
[3] = target: T1, Interleukin-1 receptor-associated kinase 4 (Homo sapiens, UniProt Q9NWZ3); test: Inhibition of human IRAK4 using biotinylated FGLARFSRFAGSSPSQSSMVARTQTVRGT peptide as substrate incubated for 1 hr in presence of ATP by ELISA assay
T1 sequence (Q9NWZ3 whole entry): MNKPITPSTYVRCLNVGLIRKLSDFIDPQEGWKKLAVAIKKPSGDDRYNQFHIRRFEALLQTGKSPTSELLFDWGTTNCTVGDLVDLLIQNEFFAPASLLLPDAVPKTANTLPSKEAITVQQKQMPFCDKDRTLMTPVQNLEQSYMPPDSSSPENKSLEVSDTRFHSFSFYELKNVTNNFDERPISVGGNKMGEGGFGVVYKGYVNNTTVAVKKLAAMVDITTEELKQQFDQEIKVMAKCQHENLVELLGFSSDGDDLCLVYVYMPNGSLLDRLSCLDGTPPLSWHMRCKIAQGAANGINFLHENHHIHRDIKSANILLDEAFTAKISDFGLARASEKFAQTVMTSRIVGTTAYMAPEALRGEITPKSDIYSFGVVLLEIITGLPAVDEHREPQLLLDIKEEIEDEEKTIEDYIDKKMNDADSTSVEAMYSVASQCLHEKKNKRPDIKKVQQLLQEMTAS

CYP1A2 [4] = test: Induction of CYP1A2 mRNA expression in human HepaRG cells assessed as fold change at 15 uM incubated for 48 hrs; type: ADME, cell-based; details: read-out: FC
CYP2C9 = CYP2C9 (Homo sapiens, UniProt P11712); test: Reversible inhibition of CYP2C9 in human liver microsomes assessed as residual activity at 5 uM using diclofenac as substrate preincubated for 30 mins followed by substrate addition measured after 20 mins by LC-MS/MS analysis relative to control; type: ADME, Microsome; details: probe diclofenac, time 50 min, read-out: Activity
CYP3A4 [5] = target: T2, CYP3A4 (Homo sapiens, UniProt P08684); test: Time dependent inhibition of CYP3A4 in human liver microsomes assessed as residual activity at 5 uM using midazolam as substrate preincubated for 30 mins followed by substrate addition measured after 20 mins by LC-MS/MS analysis relative to control; type: ADME, Microsome; details: probe midazolam, read-out: Activity
CYP1A2 [6] = test: Induction of CYP1A2 mRNA expression in human HepaRG cells assessed as fold change at 5 uM incubated for 48 hrs; type: ADME, cell-based; details: read-out: FC
CYP3A4 [7] = target: T2, CYP3A4; test: Reversible inhibition of CYP3A4 in human liver microsomes assessed as residual activity at 5 uM using midazolam as substrate preincubated for 30 mins followed by substrate addition measured after 20 mins by LC-MS/MS analysis relative to control; type: ADME, Microsome; details: probe midazolam, time 50 min, read-out: Activity
CYP1A2 [8] = target: T3, CYP1A2 (Homo sapiens, UniProt P05177); test: Reversible inhibition of CYP1A2 in human liver microsomes assessed as residual activity at 5 uM using phenacetin as substrate preincubated for 30 mins followed by substrate addition measured after 20 mins by LC-MS/MS analysis relative to control; type: ADME, Microsome; details: probe phenacetin, time 50 min, read-out: Activity
T3 sequence (P05177 whole entry): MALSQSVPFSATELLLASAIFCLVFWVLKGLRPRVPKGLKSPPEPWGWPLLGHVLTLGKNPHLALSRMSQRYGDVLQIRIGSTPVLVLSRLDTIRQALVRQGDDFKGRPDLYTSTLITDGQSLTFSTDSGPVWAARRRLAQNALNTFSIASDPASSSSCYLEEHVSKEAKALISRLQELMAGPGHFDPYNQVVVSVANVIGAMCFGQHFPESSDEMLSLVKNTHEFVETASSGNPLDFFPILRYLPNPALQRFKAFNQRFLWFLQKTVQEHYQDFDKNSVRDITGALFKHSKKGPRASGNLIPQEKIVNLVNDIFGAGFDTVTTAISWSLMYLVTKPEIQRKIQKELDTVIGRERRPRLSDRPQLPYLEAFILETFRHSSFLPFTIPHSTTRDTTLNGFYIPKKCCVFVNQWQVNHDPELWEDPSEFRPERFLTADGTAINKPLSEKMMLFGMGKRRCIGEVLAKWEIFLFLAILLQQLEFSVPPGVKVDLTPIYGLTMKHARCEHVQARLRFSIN

CYP2C8 = target: T4, CYP2C8 (Homo sapiens, UniProt P10632); test: Reversible inhibition of CYP2C8 in human liver microsomes assessed as residual activity at 5 uM using amodiaquine as substrate preincubated for 30 mins followed by substrate addition measured after 20 mins by LC-MS/MS analysis relative to control; type: ADME, Microsome; details: probe amodiaquine, time 50 min, read-out: Activity
T4 sequence (P10632 whole entry): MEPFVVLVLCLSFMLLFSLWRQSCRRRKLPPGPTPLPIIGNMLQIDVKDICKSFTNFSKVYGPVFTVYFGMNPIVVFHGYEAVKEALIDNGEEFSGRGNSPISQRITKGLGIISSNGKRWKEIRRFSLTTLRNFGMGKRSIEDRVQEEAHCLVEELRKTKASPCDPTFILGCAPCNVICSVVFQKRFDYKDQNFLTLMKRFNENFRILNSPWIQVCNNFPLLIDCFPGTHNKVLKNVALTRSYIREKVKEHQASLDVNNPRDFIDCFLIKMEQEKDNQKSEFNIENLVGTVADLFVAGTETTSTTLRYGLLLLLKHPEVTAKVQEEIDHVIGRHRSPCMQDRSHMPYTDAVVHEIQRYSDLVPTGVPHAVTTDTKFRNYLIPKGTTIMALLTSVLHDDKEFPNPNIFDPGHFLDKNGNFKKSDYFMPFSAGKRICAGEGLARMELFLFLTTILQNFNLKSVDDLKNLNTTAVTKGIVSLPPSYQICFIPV

CYP1A2 [9] = test: Induction of CYP1A2 mRNA expression in human HepaRG cells assessed as fold change at 10 uM incubated for 48 hrs; type: ADME, cell-based; details: read-out: FC
CYP1A2 [10] = test: Induction of CYP1A2 mRNA expression in human HepaRG cells assessed as fold change at 7.5 uM incubated for 48 hrs; type: ADME, cell-based; details: read-out: FC

Sequence of CYP2C9 (P11712 whole entry): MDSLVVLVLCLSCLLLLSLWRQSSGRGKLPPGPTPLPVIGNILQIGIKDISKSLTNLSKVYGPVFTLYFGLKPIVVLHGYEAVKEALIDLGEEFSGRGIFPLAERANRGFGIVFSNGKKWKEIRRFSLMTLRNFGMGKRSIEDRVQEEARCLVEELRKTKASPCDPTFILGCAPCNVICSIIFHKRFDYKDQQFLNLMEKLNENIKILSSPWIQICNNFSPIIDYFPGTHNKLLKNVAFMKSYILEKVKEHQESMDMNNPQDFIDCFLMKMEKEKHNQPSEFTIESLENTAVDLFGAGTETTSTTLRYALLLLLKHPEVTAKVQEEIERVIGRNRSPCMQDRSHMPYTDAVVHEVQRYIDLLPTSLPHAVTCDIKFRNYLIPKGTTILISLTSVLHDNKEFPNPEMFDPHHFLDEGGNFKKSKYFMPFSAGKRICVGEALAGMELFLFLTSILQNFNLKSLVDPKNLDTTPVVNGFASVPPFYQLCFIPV
T2 sequence (P08684 whole entry): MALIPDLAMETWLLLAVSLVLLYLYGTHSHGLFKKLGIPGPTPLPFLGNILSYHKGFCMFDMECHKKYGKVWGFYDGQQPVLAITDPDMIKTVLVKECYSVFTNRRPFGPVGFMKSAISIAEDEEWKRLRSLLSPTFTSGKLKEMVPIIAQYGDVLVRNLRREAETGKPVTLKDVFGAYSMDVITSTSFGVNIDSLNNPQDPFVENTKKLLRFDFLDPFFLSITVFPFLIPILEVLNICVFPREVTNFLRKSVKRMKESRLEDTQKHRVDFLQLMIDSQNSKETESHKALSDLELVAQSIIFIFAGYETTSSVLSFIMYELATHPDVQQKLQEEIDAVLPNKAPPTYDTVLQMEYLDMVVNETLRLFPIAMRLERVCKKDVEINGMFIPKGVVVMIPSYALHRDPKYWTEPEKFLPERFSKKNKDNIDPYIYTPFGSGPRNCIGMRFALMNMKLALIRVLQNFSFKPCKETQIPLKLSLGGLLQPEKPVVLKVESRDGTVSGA

Compound: Cc1cc(-c2nc(C(=O)Nc3cn(C4CCS(=O)(=O)CC4)nc3C(N)=O)co2)ccn1
- fold induction at 48 h, 30 µM (CYP1A2 [1]): 3.5
- IC50 [2]: 1600 nM

- IC50 [3]: 120 nM
Compound: Cc1cc(-c2nc(C(=O)Nc3c[nH]nc3C(N)=O)co2)ccn1

- IC50 [3]: 82 nM
Compound: NC(=O)c1nn(C2CCOCC2)cc1NC(=O)c1coc(-c2ccncc2F)n1

- IC50 [3]: 14 nM
Compound: CCc1cc(-c2nc(C(=O)Nc3cn(C4CCOCC4)nc3C(N)=O)co2)ccn1

- IC50 [3]: 48 nM
- fold induction at 48 h, 15 µM (CYP1A2 [4]): 4
Compound: Cc1cc(-c2nc(C(=O)Nc3cn(CC(C)C)nc3C(N)=O)co2)ccn1

- activity at 20 min, 5 µM (CYP2C9): 98%
- activity at 20 min, 5 µM (CYP3A4 [5]): 108%
- IC50 [3]: 16 nM
- fold induction at 48 h, 5 µM (CYP1A2 [6]): 16
- activity at 20 min, 5 µM (CYP3A4 [7]): 100%
- activity at 20 min, 5 µM (CYP1A2 [8]): 47%
- activity at 20 min, 5 µM (CYP2C8): 103%
Compound: CCn1cc(NC(=O)c2coc(-c3ccnc(C)c3)n2)c(C(N)=O)n1

- IC50 [3]: 67 nM
Compound: NC(=O)c1nn(C2CCOCC2)cc1NC(=O)c1coc(-c2ccnc(C3CC3)c2)n1

- IC50 [3]: 13 nM
Compound: Cc1cc(-c2ccc(C(=O)Nc3cn(C4CCOCC4)nc3C(N)=O)o2)ccn1

- IC50 [3]: 26 nM
Compound: NC(=O)c1nn(C2CCOCC2)cc1NC(=O)c1coc(-c2ccc(F)cc2)n1

- fold induction at 48 h, 10 µM (CYP1A2 [9]): 15
- IC50 [3]: 18 nM
Compound: COCCn1cc(NC(=O)c2coc(-c3ccnc(C)c3)n2)c(C(N)=O)n1

- activity at 20 min, 5 µM (CYP2C9): 56%
- activity at 20 min, 5 µM (CYP3A4 [5]): 78%
- IC50 [3]: 20 nM
- activity at 20 min, 5 µM (CYP3A4 [7]): 74%
- activity at 20 min, 5 µM (CYP1A2 [8]): 4%
- activity at 20 min, 5 µM (CYP2C8): 70%
Compound: CCn1cc(NC(=O)c2csc(-c3ccncc3)n2)c(C(N)=O)n1

Compound: Cc1cc(-c2nc(C(=O)Nc3cn(C4CCN(C)CC4)nc3C(N)=O)co2)ccn1
- IC50 [3]: 18 nM
- fold induction at 48 h, 15 µM (CYP1A2 [4]): 3.6
- IC50 [2]: 450 nM

- IC50 [3]: 25 nM
- fold induction at 48 h, 5 µM (CYP1A2 [6]): 8.9
Compound: CCCCn1cc(NC(=O)c2coc(-c3ccnc(C)c3)n2)c(C(N)=O)n1

- IC50 [3]: 24 nM
Compound: Cc1cc(-n2ccc(C(=O)Nc3cn(C4CCOCC4)nc3C(N)=O)n2)ccn1

Compound: CC(=O)N1CCC(n2cc(NC(=O)c3coc(-c4ccnc(C)c4)n3)c(C(N)=O)n2)CC1
- IC50 [3]: 17 nM
- fold induction at 48 h, 15 µM (CYP1A2 [4]): 3.2
- IC50 [2]: 460 nM

- fold induction at 48 h, 7.5 µM (CYP1A2 [10]): 21
- IC50 [3]: 16 nM
Compound: Cc1cc(-c2nc(C(=O)Nc3cn(C)nc3C(N)=O)co2)ccn1

- IC50 [3]: 30 nM
- fold induction at 48 h, 30 µM (CYP1A2 [1]): 10
Compound: Cc1cc(-c2nc(C(=O)Nc3cn(C4CCOC4)nc3C(N)=O)co2)ccn1 (centres undefined)

- activity at 20 min, 5 µM (CYP2C9): 59%
- activity at 20 min, 5 µM (CYP3A4 [5]): 89%
- activity at 20 min, 5 µM (CYP3A4 [7]): 70%
- activity at 20 min, 5 µM (CYP1A2 [8]): 6%
- activity at 20 min, 5 µM (CYP2C8): 103%
Compound: CCn1cc(NC(=O)c2coc(-c3ccncc3)n2)c(C(N)=O)n1

- IC50 [3]: 150 nM
Compound: Cc1cc(-c2nc(C(=O)Nc3cn(CC4(C)COC4)nc3C(N)=O)co2)ccn1

- IC50 [3]: 32 nM
Compound: Cn1cc(-c2nc(C(=O)Nc3cn(C4CCOCC4)nc3C(N)=O)co2)ccc1=O

- IC50 [3]: 34 nM
- fold induction at 48 h, 15 µM (CYP1A2 [4]): 4.5
Compound: Cc1cc(-c2nc(C(=O)Nc3cn(CC4CCOC4)nc3C(N)=O)co2)ccn1 (centres undefined)

- IC50 [3]: 80 nM
Compound: Cc1cc(-c2ncc(C(=O)Nc3cn(C4CCOCC4)nc3C(N)=O)o2)ccn1

- IC50 [3]: 52 nM
Compound: NC(=O)c1nn(C2CCOCC2)cc1NC(=O)c1coc(-c2ccnc(CO)c2)n1

From ChEMBL document CHEMBL5257151, “Design, synthesis, and pharmacological evaluation of N-(3-carbamoyl-1H-pyrazol-4-yl)-1,3-oxazole-4-carboxamide derivatives as interleukin-1 receptor-associated kinase 4 inhibitors with reduced potential for cytochrome P450 1A2 induction” (Bioorg Med Chem, 2023)
